In US12076329B2, “Compositions and methods for enhancing visual function” (The Regents of the University of California, priority 2020, dated 2024):
Entries after “also recorded” stand apart in the source; their conditions may differ.

Tests used:
SNAP-mGluR2 = target: T1, SNAP-mGluR2 (Rattus norvegicus, UniProt P31421); experiment: Photoactivation of SNAP-mGluR2 read out as GIRK current, whole cell patch clamp in HEK293 cells; format: cell-based
T1 construct: expressed in transfected cells; host or cells: HEK293 / HEK 293T, with co-expressed GIRK channel
Procedure: Whole cell patch clamp recordings from HEK 293T cells were performed 24-48 hours after transfection as previously described (Farrants et al., 2018). Briefly, voltage clamp recordings at −60 mV were performed in a high potassium (120 mM) solution to enable large inward currents upon receptor activation.
Unless otherwise noted, cells were incubated with 1-10 μM of PORTL for 45-60 min at 37° C. in the appropriate extracellular recording solution. Labeling efficiency was determined as previously described (Levitz et al., 2017). Illumination was applied to the entire field of view using a CoolLED pE-4000 through a 40× objective. Light intensity in the sample plane was 1-2 mW/mm^2. pClamp software was used for both data acquisition and control of illumination. All drugs were purchased from Tocris and applied using a gravity-driven perfusion system.
FIG. 3A-3C. Monovalent BGAG12,460 elicits rat SNAP-mGluR2 and human SNAP-mGluR6 GIRK photo-current in HEK293 cells. FIG. 3A. Group II and III mGluRs, like mGluR2 and 6, respectively, couple to GIRK channels in neurons and this system reconstitutes in non-neuronal cell lines, so that SNAP-mGluR2 or 6 coupled to a BGAG photoswitch will be activated by light and induce hyperpolarizing GIRK current. FIG. 3B. Blue (460 nm) light photo-activates BGAG12,460:SNAP-mGluR2 and elicits an inward K+ current from co-expressed GIRK channel in a HEK293 cell voltage clamped at −60 mV with [K+]in=[K+]out=150 mM. FIG. 3C.
FIG. 4A-4D. Multibranched BGAG12,460 increases potency and sensitivity of SNAP-mGluR2 activation of GIRK channels in HEK293 cells. FIG. 4A. ^4×BGAG12,460 consists of a single BG end for 1:1 attachment to SNAP on each subunit of the mGluR and 4 branches of a 12-PEG linker, with each branch bearing a photoswitchable azobenzene-glutamate (AG). FIG. 4B. […] Dependence of SNAP-mGluR2 photo-activation efficiency, read out as GIRK current, with single, 2-branch and 4-branch BGAG12,460. […]

[1] = tested on: rd1 mice expressing SNAP-mGluR2 in RGCs; experiment: Line pattern recognition (learned aversive association, iPad displays), SNAP-mGluR2 in RGCs; format: in vivo, mouse; details: for line pattern recognition in moving displays (lines 1 or 6 cm apart): displays moving at 4 or 8 cm/s; for high-acuity line pattern recognition, 0.5 cm wide lines separated by 0.25 or 0.5 cm: in PBS intravitreal
Procedure: (§1) Modified active avoidance was assayed as previously described^19, using the Coulbourn shuttle box (H10-11M-SC), however, now iPad tablet screens were mounted onto the shuttle cage wall, each displaying one of two images that differed in orientation or distance between two lines but were otherwise of equal shape, size, and light intensity. The aversive image side was paired with a foot shock of 0.7 mA. Upon recall the light patterns were reversed to avoid a bias for location and time spent on each side was recorded. Adaptation was tested by dimming or brightening the display to different intensities.
As shown above, ^4×BGAG12,460:SNAP-mGluR2 in either RGCs or ON-BCs confers high sensitivity light perception. It was asked whether ^4×BGAG12,460:SNAP-mGluR2 would support patterned vision. The ability of treated and untreated rd1 mice to discriminate between two different line patterns in a learned negative association task was tested. The task is carried out in a 2-chamber arena, where the floor in each chamber is conductive and can apply an independent aversive mild foot shock. […] The mouse was trained for two days, during which a mild foot shock was given in one of the chambers. The line pattern associated with the foot shock was assigned randomly initially but then kept consistent for that animal throughout the 2 days of training. […] The chambers were cleaned thoroughly before and after each training or test session to remove olfactory clues. The room was kept dark to avoid room reference visual cues. And the aversive and non-aversive cues were switched between the end of the second day of training and the test day to avoid location bias.
To further assess the restored line pattern recognition, the lines were made thinner and the separation between the lines was reduced.
The kinetics of onset, decay and recovery of the restored light response are expected to affect the ability to recognize a visual pattern. […] Thus, the speed limit of ^4×BGAG12,460:SNAP-mGluR2 in RGCs is ≥8 cm/s, whereas that of medium wave cone opsin in RGCs is ≤4 cm/s.

[2] = tested on: rd1 mice expressing SNAP-mGluR2 in ON-BCs; experiment: Line pattern recognition (learned aversive association, iPad displays), SNAP-mGluR2 in ON-BCs; format: in vivo, mouse; details: in PBS, trained and tested within a week after intravitreal injection
Procedure: as §1
As shown above, ^4×BGAG12,460:SNAP-mGluR2 in either RGCs or ON-BCs confers high sensitivity light perception. It was asked whether ^4×BGAG12,460:SNAP-mGluR2 would support patterned vision. The ability of treated and untreated rd1 mice to discriminate between two different line patterns in a learned negative association task was tested. The task is carried out in a 2-chamber arena, where the floor in each chamber is conductive and can apply an independent aversive mild foot shock. […] The mouse was trained for two days, during which a mild foot shock was given in one of the chambers. The line pattern associated with the foot shock was assigned randomly initially but then kept consistent for that animal throughout the 2 days of training. […]

T1 sequence (P31421 with tags, fused parts or gaps): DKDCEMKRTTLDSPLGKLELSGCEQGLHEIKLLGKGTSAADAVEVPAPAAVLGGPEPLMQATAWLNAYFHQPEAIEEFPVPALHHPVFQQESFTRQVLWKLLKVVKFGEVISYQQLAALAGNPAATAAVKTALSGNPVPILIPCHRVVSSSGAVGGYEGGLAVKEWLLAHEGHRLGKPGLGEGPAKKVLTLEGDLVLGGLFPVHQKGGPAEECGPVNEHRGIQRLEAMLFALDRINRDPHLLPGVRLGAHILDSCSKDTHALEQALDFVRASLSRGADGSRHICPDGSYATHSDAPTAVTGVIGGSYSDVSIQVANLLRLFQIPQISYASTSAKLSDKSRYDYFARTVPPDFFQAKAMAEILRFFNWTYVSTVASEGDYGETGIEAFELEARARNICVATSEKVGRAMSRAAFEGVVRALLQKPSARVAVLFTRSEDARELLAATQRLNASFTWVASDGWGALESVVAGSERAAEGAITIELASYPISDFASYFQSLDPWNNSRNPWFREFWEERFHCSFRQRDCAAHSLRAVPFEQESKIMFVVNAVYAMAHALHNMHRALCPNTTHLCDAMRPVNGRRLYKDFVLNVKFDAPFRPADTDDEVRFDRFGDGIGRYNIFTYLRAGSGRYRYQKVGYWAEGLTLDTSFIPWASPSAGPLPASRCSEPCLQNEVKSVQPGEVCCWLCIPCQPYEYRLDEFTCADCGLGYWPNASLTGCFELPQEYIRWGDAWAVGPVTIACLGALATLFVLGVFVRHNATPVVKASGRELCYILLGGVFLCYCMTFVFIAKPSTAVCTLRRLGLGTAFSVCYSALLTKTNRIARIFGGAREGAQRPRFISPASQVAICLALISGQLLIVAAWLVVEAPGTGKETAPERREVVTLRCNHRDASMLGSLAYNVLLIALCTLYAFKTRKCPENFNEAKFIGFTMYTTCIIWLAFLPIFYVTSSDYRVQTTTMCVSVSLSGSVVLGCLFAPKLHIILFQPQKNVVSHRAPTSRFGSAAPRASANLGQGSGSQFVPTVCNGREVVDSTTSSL

## Nc1nc(OCc2ccc(CNC(=O)CCCC(=O)N[C@H](CCC(=O)N[C@H](CCC(=O)NCCOCCOCCOCCOCCOCCOCCOCCOCCOCCOCCOCCOCCC(=O)NCCNc3ccc(/N=N/c4ccc(NC(=O)CCC[C@@H](C[C@H](N)C(=O)O)C(=O)O)cc4)cc3)C(=O)NCCOCCOCCOCCOCCOCCOCCOCCOCCOCCOCCOCCOCCC(=O)NCCNc3ccc(/N=N/c4ccc(NC(=O)CCC[C@@H](C[C@H](N)C(=O)O)C(=O)O)cc4)cc3)C(=O)N[C@H](CCC(=O)NCCOCCOCCOCCOCCOCCOCCOCCOCCOCCOCCOCCOCCC(=O)NCCNc3ccc(/N=N/c4ccc(NC(=O)CCC[C@@H](C[C@H](N)C(=O)O)C(=O)O)cc4)cc3)C(=O)NCCOCCOCCOCCOCCOCCOCCOCCOCCOCCOCCOCCOCCC(=O)NCCNc3ccc(/N=N/c4ccc(NC(=O)CCC[C@@H](C[C@H](N)C(=O)O)C(=O)O)cc4)cc3)cc2)c2nc[nH]c2n1 [^4×BGAG12,460]
SNAP-mGluR2; 460 nm light, GIRK current, HEK293 cells
  visible light photoactivation of SNAP-mGluR2: near-complete photoactivation of mGluR2; also recorded: close to the maximum activation that is achieved with saturating glutamate
SNAP-mGluR2; cultured HEK293 cells, versus BGAG12,460
  increase in sensitivity (shift of mid-point of the intensity-response curve): ~5 fold
[1]
  speed limit of line pattern recognition in moving displays: ≥ 8 cm/s
  line pattern recognition in moving displays (lines 1 or 6 cm apart): performed as well as wildtype animals when the line displays moved at either 4 or 8 cm/s
  high-acuity line pattern recognition, 0.5 cm wide lines separated by 0.25 or 0.5 cm: enabled the rd1 mice to perform the task and to do so as well as wildtype mice
[1]; listed as 4×BGAG
  line pattern recognition in moving displays (lines 1 or 6 cm apart): supports line pattern recognition as well as wildtype vision when visual displays move at 8 cm/s
  high-acuity line pattern recognition, 0.5 cm wide lines separated by 0.25 or 0.5 cm: supports line pattern recognition approaching wild-type acuity limit
[1]; in PBS, trained and tested within a week after intravitreal injection
  line pattern recognition, parallel lines spaced 1 versus 6 cm: spent more time on the side of the non-aversive visual display
[2]
  line pattern recognition, parallel lines spaced 1 versus 6 cm: spent also more time on the side of the non-aversive visual display
